Reference: US20140018353A1, “METHOD OF TREATING B-CELL MALIGNANT CANCERS AND T-CELL MALIGNANT CANCERS USING THIENOTRIAZOLODIAZEPINE COMPOUNDS” (Oncoethix SA, priority 2012, published 2014)
“Also recorded” adds a separate entry of the source.

Columns and labels:
DoHH2 = assay: MTT proliferation assay, 72 h; assay type: cell-based; conditions: Homo sapiens, DOHH-2, DoHH2 (DLBCL), read-out: estimated IC50
Experimental: (§1) The activity of Formula 2 was evaluated in four mantle cell lymphoma (MCL), ten diffuse large B-cell lymphoma (DLBCL) established human cell lines, a set of multiple myeloma (MM) cell lines, three splenic marginal zone lymphoma (SMZL) cell lines and eight anaplastic large T-cell lymphoma (ALCL) cell lines. Cells were exposed to increasing doses of the compound for 72 hours.
(§2) The proliferation assay was performed using the following procedure. Cells were seeded into 96-well plates at the density of 104 per well. Formula 2 (Oncoethix SA, Lausanne, Switzerland) was dissolved in DMSO as a stock solution of 10 mM and divided in aliquots stored at −80° C. For each experiment, an aliquot of the stock solution was thawed and used within 2 to 3 days. Formula 2 was serially diluted in tissue culture media, added to cells (in five replicates) and incubated for 72 hours at 37° C. Control cells were treated with equal amounts of DMSO. The 3-(4,5-dimethylthiazol-2-yl)-2,5-diphenyltetrazolium bromide (MTT) (Sigma, Buchs, Switzerland) was prepared as a stock of 5 mg/mL in phosphate-buffered saline (PBS) and filter-sterilized. An amount of MTT solution equal to 0.5 mg/mL was then added to each well and incubated in the dark at 37° C. for 4 hours. Cells were then lysed with 25% sodium dodecylsulfate (SDS) lysis buffer and absorbance was read at 570 nm on a Beckman Coulter-AD340 instrument. Three independent experiments were run for each cell line. The doses corresponding to the IC50 were estimated by fitting a sigmoidal model through the dose response curve using the R statistical package (R: A Language and Environment for Statistical Computing, R Foundation for Statistical Computing, Vienna, Austria).

Granta-519 = assay: MTT proliferation assay, 72 h; assay type: cell-based; conditions: Homo sapiens, Granta-519 (MCL), read-out: estimated IC50
Experimental: as §1, §2

JeKo-1 = assay: MTT proliferation assay, 72 h; assay type: cell-based; conditions: Homo sapiens, JeKo-1 (MCL), read-out: estimated IC50
Experimental: as §1, §2

Karpass 422 = assay: MTT proliferation assay, 72 h; assay type: cell-based; conditions: Homo sapiens, Karpass 422 (DLBCL), read-out: estimated IC50
Experimental: as §1, §2

MAVER-1 = assay: MTT proliferation assay, 72 h; assay type: cell-based; conditions: Homo sapiens, Maver1, MAVER-1 (MCL), read-out: estimated IC50
Experimental: as §1, §2

MM1S = assay: MTT proliferation assay, 72 h; assay type: cell-based; conditions: Homo sapiens, MM1.S, MM1S (MM), read-out: estimated IC50
Experimental: as §1, §2

OCI-Ly7 = assay: MTT proliferation assay, 72 h; assay type: cell-based; conditions: Homo sapiens, OCI-Ly7 (DLBCL), read-out: estimated IC50
Experimental: as §1, §2

RPMI8226 = assay: MTT proliferation assay, 72 h; assay type: cell-based; conditions: Homo sapiens, RPMI-8226, RPMI8226 (MM), read-out: estimated IC50
Experimental: as §1, §2

Rec-1 = assay: MTT proliferation assay, 72 h; assay type: cell-based; conditions: Homo sapiens, Rec1, Rec-1 (MCL), read-out: estimated IC50
Experimental: as §1, §2

SU-DHL-2 = assay: MTT proliferation assay, 72 h; assay type: cell-based; conditions: Homo sapiens, SU-DHL-2 (DLBCL), read-out: estimated IC50
Experimental: as §1, §2

SU-DHL-4 = assay: MTT proliferation assay, 72 h; assay type: cell-based; conditions: Homo sapiens, SU-DHL-4 (DLBCL), read-out: estimated IC50
Experimental: as §1, §2

SU-DHL-5 = assay: MTT proliferation assay, 72 h; assay type: cell-based; conditions: Homo sapiens, SU-DHL-5 (DLBCL), read-out: estimated IC50
Experimental: as §1, §2

SU-DHL-6 = assay: MTT proliferation assay, 72 h; assay type: cell-based; conditions: Homo sapiens, SU-DHL-6 (DLBCL), read-out: estimated IC50
Experimental: as §1, §2

SU-DHL-7 = assay: MTT proliferation assay, 72 h; assay type: cell-based; conditions: Homo sapiens, SU-DHL-7 (DLBCL), read-out: estimated IC50
Experimental: as §1, §2

U-2932 = assay: MTT proliferation assay, 72 h; assay type: cell-based; conditions: Homo sapiens, U2932, U-2932 (DLBCL), read-out: estimated IC50
Experimental: as §1, §2

U266 = assay: MTT proliferation assay, 72 h; assay type: cell-based; conditions: Homo sapiens, U-266, U266 (MM), read-out: estimated IC50
Experimental: as §1, §2

DLBCL cell lines [1] = assay: MTT proliferation assay, 72 h; assay type: cell-based, human; conditions: for IC50: Homo sapiens
Experimental: as §1, §2

MCL cell lines = assay: MTT proliferation assay, 72 h; assay type: cell-based, human; conditions: three MCL cell lines
Experimental: as §1, §2

MM cell lines [2] = assay: MTT proliferation assay, 72 h; assay type: cell-based, human; conditions: all MM cell lines
Experimental: as §1, §2

VAL = assay: MTT proliferation assay, 72 h; assay type: cell-based, human
Experimental: as §1, §2

SMZL cell lines = assay: MTT proliferation assay; assay type: cell-based, human; conditions: three SMZL cell lines
Experimental: as §1
as §2, with “An amount of MTT solution equal to 0.5 mg/mL was then added to each well and incubated in the dark at 37° C. for 4 hours.” left out, “Three independent experiments were run for each cell line. The doses corresponding to the IC50 were estimated by fitting a sigmoidal model through the dose response curve using the R statistical package (R: A Language and Environment for Statistical Computing, R Foundation for Statistical Computing, Vienna, Austria).” left out
The activity of Formula 2 was also evaluated in SMZL cell lines using the procedures described in Example 1. […]

ALCL cell lines = assay: MTT proliferation assay; assay type: cell-based, human; conditions: eight ALCL cell lines
Experimental: as §1
as §2, with “An amount of MTT solution equal to 0.5 mg/mL was then added to each well and incubated in the dark at 37° C. for 4 hours.” left out, “Three independent experiments were run for each cell line. The doses corresponding to the IC50 were estimated by fitting a sigmoidal model through the dose response curve using the R statistical package (R: A Language and Environment for Statistical Computing, R Foundation for Statistical Computing, Vienna, Austria).” left out
The activity of Formula 2 was also evaluated in ALCL cell lines using the procedures described in Example 1. […]

DLBCL cell lines [3] = assay: Cell death, propidium iodide flow cytometry; assay type: cell-based, human; conditions: 24 and 72 hours, 0.1-15 μM; SU-DHL-2 and DoHH2
Experimental: Cell death was evaluated as follows. […], harvested and washed once in PBS and then stained with propidium iodide (PI 1 μg/ml, Sigma) in PBS and analyzed using a FACScan flow cytometer (Becton Dickinson, Mountain View, Calif., USA). The analysis of the percentage of cell death was performed using CellQuest Pro software (Becton Dickinson).

DLBCL cell lines [4] = assay: Cell cycle analysis, flow cytometry; assay type: cell-based, human; conditions: five DLBCL cell lines, 24 h
Experimental: (§3) Cell cycle analysis was performed using the following procedure. Cells were treated with DMSO or different doses of Formula 2 for 24 hours, harvested and washed once in PBS and then fixed in 80% ethanol at 4° C. for at least one hour. Cells were stained with propidium iodide (PI 50 μg/ml, Sigma) in PBS containing RNAse-A (75 kU/ml, Sigma) and analyzed for DNA content using a FACScan flow cytometer (Becton Dickinson). Cell cycle analysis was performed using the ModFit LT software package (Verity Software House, Inc., Topsham, Me., USA).
Not having observed the induction of massive cell death despite the important effect on cell viability, the effect of Formula 2 on the cell cycle was investigated (FIG. 6). […] FIG. 7 illustrates representative flow cytometry profiles of untreated control cells and SU-DHL-6 cells treated for 24 hours with 0.2 in μM of Formula 2.

[5] = test system: c-MYC mRNA in DLBCL cell lines; assay: c-MYC mRNA levels, real-time PCR; assay type: cell-based, human
Experimental: (§4) RNA was extracted using the RNA easy kit (Qiagen AG, Hombrechtikon, Switzerland). The concentration of total RNA was determined spectrophotometrically at 260 nm using a NanoDrop spectrometer (NanoDrop Technologies, Wilmington, Del., USA). One microgram of total RNA was reverse-transcribed using the Superscript First-Strand Synthesis System for real-time PCR kit (Invitrogen, Karlsruhe, Germany) according to the manufacturer's instructions. PCR amplification was performed using Fast SYBR Green Master Mix on a StepOnePlus real-time PCR System (Applied Biosystems, Foster City, Calif., USA). Primer sets (Table 2) were designed using the Primer3 software package (Rozen, S., Skaletsky, H. Primer3 on the WWW for general users and for biologist programmers. In: Misener, S., Krawetz, S. A., Eds. Methods in Molecular Biology, Vol. 132: Bioinformatics Methods and Protocols. Totowa, N.J., USA: Humana Press Inc., 2000, pp. 365-386). All samples were analyzed in triplicate. The relative quantity of the specific mRNA for each sample was calculated based on mean cycle threshold (Ct) values using the delta-delta Ct with a correction for experimental variations by normalization to the housekeeping gene GAPDH.

[6] = test system: NFκB target genes in DLBCL cell lines; assay: NFκB target gene expression; assay type: cell-based, human; conditions: two DLBCL cell lines
Experimental: as §4
BRD4 co-activates transcriptional activation of NF-B via specific binding to acetylated ReIA. […]

MM cell lines [7] = assay: Cell death, propidium iodide flow cytometry; assay type: cell-based, human
Experimental: Cell death was evaluated as follows. Cells were treated with DMSO or different doses of Formula 2 for 72 hours, harvested and washed once in PBS and then stained with propidium iodide (PI 1 μg/ml, Sigma) in PBS and analyzed using a FACScan flow cytometer (Becton Dickinson, Mountain View, Calif., USA). The analysis of the percentage of cell death was performed using CellQuest Pro software (Becton Dickinson).
(§5) The activity of Formula 2 was also evaluated in MM cell lines. […] All the BRD factors were expressed (FIG. 14).

MM cell lines [8] = assay: Cell cycle analysis, flow cytometry; assay type: cell-based, human; conditions: two of the three MM cell lines
Experimental: as §3, §5

[9] = test system: MYC mRNA in MM cell lines; assay: MYC mRNA levels, real-time PCR; assay type: cell-based, human; conditions: RPMI8226 and MM1S cell lines, 24 hours
Experimental: as §4

MM cell lines [10] = assay: % Annexin V positive cells; assay type: cell-based, human; conditions: doses at IC50, 24 hours
Experimental: FIG. 18 illustrates the % Annexin V positive cells obtained after doses of Formula 2 at IC50 and 24 hours.

c-MYC in ALCL cell lines = assay: c-MYC mRNA levels, real-time PCR; assay type: cell-based, human; conditions: 8 and 24 hours of treatment
Experimental: as §4
FIGS. 25A-25E illustrate c-MYC levels in ALCL cell lines after 8 hours of treatment with Formula 2. FIG. 26 illustrates c-MYC levels in ALCL cell lines after 24 hours of treatment with Formula 2.

[11] = test system: MYC mRNA in MM cell lines; conditions: reported; cited from earlier work

Structure (SMILES): Cc1sc2c(c1C)C(c1ccc(Cl)cc1)=N[C@@H](CC(=O)Nc1ccc(O)cc1)c1nnc(C)n1-2 [Formula 2, (S)-2-[4-(4-chlorophenyl)-2,3,9-trimethyl-6H-thieno[3,2-f][1,2,4]triazolo-[4,3-a][1,4]diazepin-6-yl]-N-(4-hydroxyphenyl)acetamide]
- IC50 (DoHH2): 90 nM
- IC50 (Granta-519): > 15 µM
- IC50 (JeKo-1): 2790 nM
- IC50 (Karpass 422): 277 nM
- IC50 (MAVER-1): 1220 nM
- IC50 (MM1S): 59 nM
- IC50 (OCI-Ly7): 1390 nM
- IC50 (RPMI8226): 700 nM
- IC50 (Rec-1): 1220 nM
- IC50 (SU-DHL-2): 69 nM
- IC50 (SU-DHL-4): 607 nM
- IC50 (SU-DHL-5): 189 nM
- IC50 (SU-DHL-6): 110 nM
- IC50 (SU-DHL-7): 132 nM
- IC50 (U-2932): 255 nM
- IC50 (U266): 449 nM
- IC50 (DLBCL cell lines [1]; seven very sensitive DLBCL cell lines): < 300 nM
- IC50 (DLBCL cell lines [1]; two DLBCL cell lines): 600 to 1400 nM
- cell viability (DLBCL cell lines [1]; all the DLBCL cell lines): dose-dependent decrease in cell viability
- IC50 (MCL cell lines; Homo sapiens): 1200 to 2700 nM
- cell viability (MCL cell lines): dose-dependent decrease in cell viability
- IC50 (MM cell lines [2]; Homo sapiens): 60 to 700 nM
- cell viability (MM cell lines [2]): reduction in cell viability in all the cell lines
- IC50 (VAL; Homo sapiens, VAL (DLBCL), MTT, 72 h, read-out: estimated IC50): > 12.7 µM
- reduction in cell proliferation (VAL; VAL, doses of up to 10 μM): over 40%
- cell viability (SMZL cell lines): dose-dependent decrease in cell viability
- cell viability (ALCL cell lines): dose-dependent decrease in cell viability
- cell death (DLBCL cell lines [3]): induces cell death only in a small percentage of the cell
- effect on the cell cycle (DLBCL cell lines [4]): induced a G1-arrest in a dose-dependent manner
- c-MYC mRNA levels ([5]; six DLBCL cell lines, 24 hours of treatment): down-regulated in five of the six cell lines
- c-MYC levels ([5]; three DLBCL cell lines, 1 hour of treatment): down-regulation of c-MYC in two of three DLBCL cell lines
- NFκB target genes expression [6]: partial down-regulation of NFκB target genes
- cell death (MM cell lines [7]): did not show an important increase of cell death
- cell cycle analysis, S-phase (MM cell lines [8]): significant reduction of S-phase
- MYC mRNA levels [9]: significant reduction of MYC mRNA levels in a dose-dependent manner; also recorded: down-regulation of c-MYC in a dose-dependent manner
- cytostatic versus cytotoxic effect (% Annexin V positive cells) (MM cell lines [10]): cytostatic effect
- c-MYC levels (c-MYC in ALCL cell lines): down-regulation of c-MYC in a dose-dependent manner

Structure (SMILES): Cc1sc2c(c1C)C(c1ccc(Cl)cc1)=N[C@@H](CC(=O)OC(C)(C)C)c1nnc(C)n1-2 [JQ1]
- MYC levels [11]: down-regulation of MYC
